Numbers after ± are expanded uncertainties.
Assay: xn = mol fraction of the nth substance listed
Conditions: 101 kPa, Liquid

CCCCn1cc[n+](C)c1.F[B-](F)(F)F [1-butyl-3-methylimidazolium tetrafluoroborate] + OCCO
Conditions	mass density [kg/m3]	viscosity [mPa·s]
293.15 K, x1 = 0.0895	1133.64 ± 4.2	19.89 ± 1.9
293.15 K, x1 = 0.1758	1147.86 ± 2.9	19.29 ± 1.8
293.15 K, x1 = 0.3578	1167.8 ± 2.6	23.44 ± 2.2
293.15 K, x1 = 0.4397	1174.28 ± 2.1	23.39 ± 2.2
293.15 K, x1 = 0.6482	1187.63 ± 2.1	39.69 ± 3.7
293.15 K, x1 = 0.8121	1196.19 ± 2	68.29 ± 8.6
293.15 K, x1 = 1	1204.44 ± 1.8	136.9 ± 56
298.15 K, x1 = 0.0895	1129.95 ± 4.1	–
298.15 K, x1 = 0.1758	1144.07 ± 2.8	–
298.15 K, x1 = 0.3578	1163.96 ± 2.6	–
298.15 K, x1 = 0.4397	1170.46 ± 2.1	–
298.15 K, x1 = 0.6482	1183.91 ± 2	–
298.15 K, x1 = 0.8121	1192.56 ± 2	–
298.15 K, x1 = 1	1200.89 ± 1.8	–
303.15 K, x1 = 0.0895	1126.26 ± 4.1	12.66 ± 1.2
303.15 K, x1 = 0.1758	1140.28 ± 2.8	12.72 ± 1.2
303.15 K, x1 = 0.3578	1160.12 ± 2.6	15.48 ± 1.4
303.15 K, x1 = 0.4397	1166.64 ± 2.1	17.5 ± 1.6
303.15 K, x1 = 0.6482	1180.21 ± 2	26.17 ± 2.4
303.15 K, x1 = 0.8121	1188.95 ± 1.9	41.88 ± 3.9
303.15 K, x1 = 1	1197.34 ± 1.7	81.4 ± 16
313.15 K, x1 = 0.0895	1118.86 ± 4	8.881 ± 0.83
313.15 K, x1 = 0.1758	1132.71 ± 2.8	8.902 ± 0.83
313.15 K, x1 = 0.3578	1152.49 ± 2.5	10.87 ± 1
313.15 K, x1 = 0.4397	1159.07 ± 2	12.33 ± 1.1
313.15 K, x1 = 0.6482	1172.85 ± 2	18.29 ± 1.7
313.15 K, x1 = 0.8121	1181.74 ± 1.9	28.17 ± 2.6
313.15 K, x1 = 1	1190.27 ± 1.7	51.79 ± 0.85
323.15 K, x1 = 0.0895	1111.43 ± 4	6.422 ± 0.6
323.15 K, x1 = 0.1758	1125.13 ± 2.8	6.528 ± 0.61
323.15 K, x1 = 0.3578	1144.89 ± 2.5	8.034 ± 0.75
323.15 K, x1 = 0.4397	1151.54 ± 2	9.112 ± 0.85
323.15 K, x1 = 0.6482	1165.56 ± 2	13.41 ± 1.2
323.15 K, x1 = 0.8121	1174.6 ± 1.9	20.62 ± 1.9
323.15 K, x1 = 1	1183.24 ± 1.6	35.23 ± 3.3
333.15 K, x1 = 0.0895	1103.95 ± 3.9	4.88 ± 0.46
333.15 K, x1 = 0.1758	1117.55 ± 2.7	4.971 ± 0.46
333.15 K, x1 = 0.3578	1137.35 ± 2.5	6.16 ± 0.57
333.15 K, x1 = 0.4397	1144.07 ± 2	7.005 ± 0.65
333.15 K, x1 = 0.6482	1158.32 ± 2	10.2 ± 0.95
333.15 K, x1 = 0.8121	1167.55 ± 1.9	14.84 ± 1.4
333.15 K, x1 = 1	1176.25 ± 1.6	24.97 ± 2.3
343.15 K, x1 = 0.0895	1096.42 ± 3.9	3.807 ± 0.35
343.15 K, x1 = 0.1758	1109.96 ± 2.7	3.909 ± 0.36
343.15 K, x1 = 0.3578	1129.84 ± 2.5	4.87 ± 0.45
343.15 K, x1 = 0.4397	1136.64 ± 2	5.552 ± 0.52
343.15 K, x1 = 0.6482	1151.14 ± 1.9	8.019 ± 0.75
343.15 K, x1 = 0.8121	1160.56 ± 1.8	11.41 ± 1.1
343.15 K, x1 = 1	1169.32 ± 1.6	18.49 ± 1.7
353.15 K, x1 = 0.0895	1088.83 ± 3.8	2.872 ± 0.27
353.15 K, x1 = 0.1758	1102.35 ± 2.7	3.163 ± 0.3
353.15 K, x1 = 0.3578	1122.35 ± 2.4	3.932 ± 0.37
353.15 K, x1 = 0.4397	1129.25 ± 2	5.153 ± 0.48
353.15 K, x1 = 0.6482	1144 ± 1.9	6.479 ± 0.6
353.15 K, x1 = 0.8121	1153.54 ± 1.8	8.692 ± 0.81
353.15 K, x1 = 1	1162.44 ± 1.5	14.37 ± 1.3

C[S+](C)[O-] [dimethyl sulfoxide] + CCCCn1cc[n+](C)c1.F[B-](F)(F)F
x2 = 0
Conditions	mass density [kg/m3]	viscosity [mPa·s]
293.15 K	1100.76 ± 1.1	2.21 ± 0.21
298.15 K	1095.74 ± 1.1	–
303.15 K	1090.73 ± 1.1	1.843 ± 0.17
313.15 K	1080.69 ± 1	1.556 ± 0.15
323.15 K	1070.66 ± 0.94	1.337 ± 0.12
333.15 K	1060.63 ± 0.88	1.165 ± 0.11
343.15 K	1050.58 ± 0.82	1.028 ± 0.096
353.15 K	1040.51 ± 0.75	0.917 ± 0.086
